According to US9771372B2, “Compounds useful as S100-inhibitors” (Active Biotech AB, priority 2014, dated 2017):

Target: T1, interaction between biotinylated human S100A9 and human RAGE-Fc (Homo sapiens, UniProt P06702)
T1 construct: made in house; host or cells: E. coli BL21(DE3)/pET1120 (pLR757)
T1 sequence (P06702 1-114): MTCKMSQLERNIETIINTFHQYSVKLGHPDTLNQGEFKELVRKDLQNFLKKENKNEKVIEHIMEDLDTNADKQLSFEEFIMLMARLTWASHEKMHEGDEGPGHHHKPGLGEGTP
Assay: AlphaScreen inhibition assay, Biot-hS100A9:hRAGE-Fc (S100A9-RAGE inhibition assay)
Format: binding
Settings: biot-hS100A9 and rhRAGE-Fc, Ca2+ and Zn2+ in buffer
From the text: FIG. 1 is a schematic representation of an assay of the inhibition of the interaction between biotinylated human S100A9 and human RAGE-Fc using a small molecule S100A9 binder.
Inhibition Assay, Biot-hS100A9:hRAGE-Fc
The AlphaScreen (Amplified Luminescent Proximity Homogeneous Assay) contains two types of beads, Alpha Donor beads and Acceptor beads (PerkinElmer). Upon laser excitation at 680 nm a photosensitizer in the Donor bead converts ambient oxygen to a more excited singlet state. The singlet oxygen molecule diffuses (maximum 200 nm) to react with a thioxene derivative in the Acceptor bead and generates a chemiluminescence reaction. Fluorophores in the Acceptor bead subsequently emit light at 520-620 nm which can be detected in the EnVision® Multilabel plate Reader (PerkinElmer). The beads are light sensitive and all work with the beads is performed under subdued light conditions or using green filters on light sources (Roscolux Chroma Green #389, Rosco).
In the AlphaScreen Inhibition Assay described here, protein A (Staphylococcus aureus) conjugated Acceptor beads are used together with streptavidin coated Donor beads (Perkin Elmer 6760617M). The Acceptor beads are pre-incubated with Fc-tagged recombinant human RAGE (rhRAGE-Fc) allowing binding of the rhRAGE-Fc to protein A on the beads. Biotinylated human S100A9 (biot-hS100A9) is pre-incubated with the low molecular test compounds. The pre-mixes are then added to the wells of a micro-plate and incubated allowing interaction between biot-hS100A9 and rhRAGE-Fc. Subsequent addition of streptavidin coated Donor beads causes binding of the streptavidin to the biotinylated hS100A9. After an additional incubation the signal is measured.
Without inhibitory compounds, the interaction of biot-hS100A9 to rhRAGE-Fc will bring the Acceptor and Donor beads in close proximity thus generating a high signal. With an inhibitor present the complex will not form resulting in a decreased signal.
The AlphaScreen assay method is used for screening of the inhibitory effect of different compound samples at fixed concentrations or for IC50 determination by varying the compound concentrations. Samples of test compounds and references are prepared from solutions in DMSO. Relevant reference inhibitors and DMSO are used as controls for defined inhibition and non-inhibition, respectively in the assay. The percent inhibition in assay for test compounds and references are calculated by comparing their obtained assay signals with the signal values for the control with only DMSO (no compound).
Assay concentration of biotinylated hS100A9 and rhRAGE-Fc are batch dependent, and are determined and defined by separate cross-titration experiments using this AlphaScreen inhibition method to verify the optimal setup regarding signal strength and achievement of a defined inhibition with relevant reference compounds. The Final assay concentrations of Acceptor and Donor beads are 20 μg/mL.
Assay buffer is prepared by adding CaCl2 and ZnCl2 to HBS-P and is used freshly prepared in the experiment.
Biotin-hS100A9 solution for the experiment is prepared by dilution of appropriate amount of stock solution biot-hS100A9 in assay buffer (with CaCl2 and ZnCl2) and incubation in room temperature for 30 minutes.
rhRAGE-Fc solution for the experiment is prepared by dilution appropriate amount of rhRAGE-Fc stock in assay buffer.
Protein A Acceptor beads are diluted in assay buffer and are added to an equal volume of the prepared diluted rhRAGE-Fc solution. The beads are light sensitive. The vial is covered with aluminum foil and incubated at room temperature in the dark until biot-hS100A9+compound incubation is finished (see below).
Streptavidin-coated Donor beads are diluted in assay buffer. The beads are very light sensitive. The vial is covered with aluminum foil and incubated at room temperature in the dark until use (see below).
Samples of test compounds, appropriate references and DMSO control are diluted in assay buffer. […]

IC50 [nM]	Compound
950	COc1cccc(-c2cccc3c2nc2n3C(NC(=O)CCC3CCCC3)(C(F)(F)F)C(=O)N2)c1 (stereo not drawn) [Example 189, 3-cyclopentyl-N-[9-(3-methoxyphenyl)-4-oxo-3-(trifluoromethyl)-2,5,7-triazatricyclo[6.4.0.0^2,6]dodeca-1(12),6,8,10-tetraen-3-yl]propanamide]
700	O=C(CCC1CCCCC1)NC1(C(F)(F)F)C(=O)Nc2nc3cc(Cl)c(Cl)cc3n21 (stereo not drawn) [Example 53, 3-cyclohexyl-N-[10,11-dichloro-4-oxo-3-(trifluoromethyl)-2,5,7-triazatricyclo[6.4.0.0^2,6]-dodeca-1(12),6,8,10-tetraen-3-yl]propanamide]
1270	O=C(CCC1CCCC1)NC1(C(F)(F)F)C(=O)Nc2nc3c(-c4ccccc4)cccc3n21 (stereo not drawn) [Example 195, 3-cyclopentyl-N-[4-oxo-9-phenyl-3-(trifluoromethyl)-2,5,7-triazatricyclo[6.4.0.0^2,6]dodeca-1(12),6,8,10-tetraen-3-yl]propanamide]
1400	O=C(NC1(C(F)(F)F)C(=O)Nc2nc3cc(Cl)c(Cl)cc3n21)c1cccc(Cl)c1 (stereo not drawn) [Example 56, 3-chloro-N-[10,11-dichloro-4-oxo-3-(trifluoromethyl)-2,5,7-triazatricyclo[6.4.0.0^2,6]-dodeca-1(12),6,8,10-tetraen-3-yl]benzamide]
1340	O=C(CCC1CCCC1)NC1(C(F)(F)F)C(=O)Nc2nc3c(-c4ccc(Cl)c(Cl)c4)cccc3n21 (stereo not drawn) [Example 203, 3-cyclopentyl-N-[9-(3,4-dichlorophenyl)-4-oxo-3-(trifluoromethyl)-2,5,7-triazatricyclo[6.4.0.0^2,6]dodeca-1(12),6,8,10-tetraen-3-yl]propanamide]
940	O=C(CCC1CCCC1)NC1(C(F)(F)F)C(=O)Nc2nc3cc(Cl)c(Cl)cc3n21 (single isomer, unassigned) [Example 219a, 3-cyclopentyl-N-[10,11-dichloro-4-oxo-3-(trifluoromethyl)-2,5,7-triazatricyclo[6.4.0.0^2,6]dodeca-1(12),6,8,10-tetraen-3-yl]propanamide]
2020	N#Cc1cccc(C(=O)NC2(C(F)(F)F)C(=O)Nc3nc4cc(Cl)c(Cl)cc4n32)c1 (stereo not drawn) [Example 100, 3-cyano-N-[10,11-dichloro-4-oxo-3-(trifluoromethyl)-2,5,7-triazatricyclo[6.4.0.0^2,6]dodeca-1(8),6,9,11-tetraen-3-yl]benzamide]
4580	Cc1cc2nc3n(c2cc1C)C(NC(=O)[C@@H](C)Oc1cccc(Cl)c1)(C(F)(F)F)C(=O)N3 (single isomer, unassigned) [Example 212b]
2000	O=C(NC1(C(F)(F)F)C(=O)Nc2nc3cc(Cl)c(Cl)cc3n21)C1CCNC1 (mixture of isomers) [Example 42, N-[10,11-dichloro-4-oxo-3-(trifluoromethyl)-2,5,7-triazatricyclo-[6.4.0.0^2,6]dodeca-1(12),6,8,10-tetraen-3-yl]pyrrolidine-3-carboxamide]
1820	COCCNc1nc(C(=O)NC2(C(F)(F)F)C(=O)Nc3nc4cc(C)c(C)cc4n32)cs1 (stereo not drawn) [Example 119, N-[10,11-dimethyl-4-oxo-3-(trifluoromethyl)-2,5,7-triazatricyclo[6.4.0.0^2,6]dodeca-1(8),6,9,11-tetraen-3-yl]-2-[(2-methoxyethyl)amino]-1,3-thiazole-4-carboxamide]
1400	Cc1cc2nc3n(c2cc1C)C(NC(=O)CCc1ccccc1)(C(F)(F)F)C(=O)N3 (stereo not drawn) [Example 15, N-[10,11-dimethyl-4-oxo-3-(trifluoromethyl)-2,5,7-triazatricyclo[6.4.0.0^2,6]dodeca-1(8),6,9,11-tetraen-3-yl]-3-phenylpropanamide]
600	CN(C)CCNc1cccc(C(=O)NC2(C(F)(F)F)C(=O)Nc3nc4cc(Cl)c(Cl)cc4n32)n1 (stereo not drawn) [Example 93, N-[10,11-dichloro-4-oxo-3-(trifluoromethyl)-2,5,7-triazatricyclo[6.4.0.0^2,6]dodeca-1(8),6,9,11-tetraen-3-yl]-6-{[2-(dimethylamino)ethyl]amino}pyridine-2-carboxamide]
